Consider six compounds from patent EP0334853B1, “SOFT STEROIDS HAVING ANTI-INFLAMMATORY ACTIVITY” (BODOR, Nicholas S., priority 1987, dated 1989).

The assay concerns skin of the flexor surface of the forearm. Description: Topical vasoconstriction test (blanching, method of McKenzie and Stoughton). As to conditions: for BLANCHING STUDIES Value (average estimation values for the blanching activity): 0.03M solution in acetone/isopropylmyristate 90:10, 0.05 milliliter on 1 cm patch, occluded, patch removed after about six hours, blanching score one hour later, average of duplicate, except entries marked ** (duplicate experiment not conducted). In kind it is in vivo. Here is the method:
TOPICAL VASOCONSTRICTION TEST
A topical vasoconstriction test was conducted using the general method of McKenzie, A.W. and R.B. Stoughton, Arch. Dermatol, 86, (1962), 608-10. The topical vasoconstriction test was done in order to evaluate the anti-inflammatory potency of the novel compounds of the present invention. A 0.03M solution of the test compound in acetone/isopropylmyristate 90:10 volume/volume was prepared. An aliquot of 0.05 milliliter was applied to a circular patch, one centimeter in diameter, which was in turn applied against the skin of the flexor surface of the forearm (previously cleansed with ethanol 95% and dried). This application was occluded with a water-impervious film. The patch was removed after about six hours and the blanching score was evaluated one hour later. Two control compounds were used at the same time and under the same conditions. The control compounds were hydrocortisone 17-valerate and cortienic acid 17-ethylcarbonate chloromethylester. The experiment was made in duplicate and the average estimation values for the blanching activity are reported in Table I. The left column of Table I indicates the 17α-substituent of the structure: [drawing 44]

As for `CCCCO[C@]1(C(=O)OCCl)CC[C@H]2[C@@H]3CCC4=CC(=O)CC[C@]4(C)[C@H]3[C@@H](O)C[C@@]21C` [-OC₄H₉, Chloromethyl 17α-butoxy-11β-hydroxyandrost-4-en-3-one-17β-carboxylate], the “BLANCHING STUDIES Value (average estimation values for the blanching activity)” value (from here on “BLANCHING STUDIES Value”) was 0.5.
As to “hydrocortisone 17-valerate [reference compound]”, the “BLANCHING STUDIES Value” value was 1.5.
On to `CO[C@]1(C(=O)OCCl)CC[C@H]2[C@@H]3CCC4=CC(=O)CC[C@]4(C)[C@H]3[C@@H](O)C[C@@]21C` [-OCH₃, chloromethyl 11β-hydroxy-17α-methoxyandrost-4-en-3-one-17β-carboxylate], for which the “activity (blanching), determined in a previous study” value (previous study, no details given) is “* The 17-methoxy homologue was determined in a previous study to have low activity”.
Regarding `CCOC(=O)O[C@]1(C(=O)OCCl)CC[C@H]2[C@@H]3CCC4=CC(=O)CC[C@]4(C)[C@H]3[C@@H](O)C[C@@]21C` [carbonate, cortienic acid 17-ethylcarbonate chloromethylester, reference compound], the “BLANCHING STUDIES Value” value is reported as 1.75.
For the compound `CCO[C@]1(C(=O)OCCl)CC[C@H]2[C@@H]3CCC4=CC(=O)CC[C@]4(C)[C@H]3[C@@H](O)C[C@@]21C` [-OCH₂H₅, chloromethyl 11β-hydroxy-17α-ethoxyandrost-4-en-3-one-17β-carboxylate], the “BLANCHING STUDIES Value” value is listed as 0.75.
On the same count and under the same terms, the value for `CCCO[C@]1(C(=O)OCCl)CC[C@H]2[C@@H]3CCC4=CC(=O)CC[C@]4(C)[C@H]3[C@@H](O)C[C@@]21C` [-OC₃H₇, Chloromethyl 11β-hydroxy-17α-propoxyandrost-4-en-3-one-17β-carboxylate] was 1 **.
